Data taken from patent publication US20080096244A1, “D-AMINOACYLASE” (DAIICHI PURE CHEMICALS CO., LTD., priority 2002, published 2008).
Entries after “also recorded” stand apart in the source; their conditions may differ.

B1: the enzyme of the present invention: D-aminoacylase from the Defluvibacter sp. A131-3 strain obtained in Example 3; amino acid sequence of SEQ ID NO. 2 (protein)
chain: MAKSFDLVIRNGRVVDPETGHDAIADVAVSGGQIVAVGPSLGAGKREIDATGLVVSPGFIDLHAHGQSIPADRMQAFDGVTTALELEVGSLPVARWYEQQQAGGRVLNYGTAAAWIFARKAVMIGMELDGRLAPIEMMGAGSDDMRWSVDAATAPQTDDIVRLTRQALEEGALGIGIPHGYAAGAGVKEMTRICELAAEFDRPTYTHIPYMSNIDPRSSVEAYVQLIGLAGATGAHMHICHLNSTSLRDVEDAARLIAKAQAQGLPITTEAYPYGTGSTVMSARFFIDSDFAERTGTGYDAIQVVSSGKRFENRDELVAARAETPEALVLWHYLDTDNPHDQRLLDVSVMYPGGAIASDAVPWSNPDGTLYTGEEWPLPADKTSHPRSAGTYTRFLAQWVREREAVPLVEAIAKCALIPAQIVERCSDVFRRKGRLQPGCDADIVIFDLESVQDRSTFEDMHLAADGMVHVLVNGEAVIANGELVRDARSGRAIRSTPR
modifications: Defluvibacter sp.A131-3

Key:
[1] = system: D-aminoacylase from the Defluvibacter sp. A131-3 strain; assay: Effects of metal ions on D-aminoacylase activity (D-valine produced, HPLC); type: biochemical; conditions: for Relative activity (%): metal ion 1.0 mmol/L, 0.5 mol/L N-acetyl-D-valine, enzyme 500 U, 40° C., 1 day, no metal addition = 100%; for Effects of metal ions on activity: each at 1 mmol/L
[2] = system: D-aminoacylase from the Defluvibacter sp. A131-3 strain; assay: Substrate specificity, acylase activity measurement using D-/L-amino acid oxidase chromogenic reagent; type: biochemical; conditions: for Substrate specificity: whether the enzyme acts on the substrate: D- or L-amino acid oxidase detection; for Relative activity (% in relation to Met): activity of N-acetyl-D-methionine = 100; for Relative activity (% in relation to Met) / Relative activity (% in relation to Val): 100 mmol/L substrate solution, pH 8, 37° C., 30 minutes; for Relative activity (% in relation to Val): activity of N-acetyl-D-valine = 100
Description: (4) Substrate specificity: Substrate specificity of the acylase of the present invention was confirmed by using the following N-acetyl-D-amino acids and N-acetyl-L-amino acids as the substrate and combining therewith the D-amino acid oxidase or the L-amino acid oxidase. The acylase of the present invention acts on the following N-acetyl-D-amino acids but not on the N-acetyl-L-amino acids.
In the measurement of the reactivity with the L-amino acids, an oxidase for L-amino acids is used instead of the D-amino acid oxidase in the activity measurement as will be described below.
4. Substrate specificity was determined by an activity measurement method using the chromogenic reagents for the D- and L-amino acid oxidases as described above.

[3] = system: D-aminoacylase from the Defluvibacter sp. A131-3 strain; assay: Effects of inhibitor on D-aminoacylase activity (D-valine produced, HPLC); type: biochemical; conditions: for Effects of inhibitors on activity: each at 5 mmol/L; for Relative activity (%): inhibitor 5 mmol/L, 0.5 mol/L N-acetyl-D-valine, enzyme 500 U, 40° C., 1 day, no addition of inhibitor = 100%
Procedure: The detection was conducted at 230 nm. The column was analyzed at a temperature of 30° C. The enzymatic activity was evaluated in terms of the ratio between the area of the acetyl compound and the free compound, and the resolution rate was expressed as a […]

[4] = system: D-aminoacylase from Defluvibacter sp. A131-3 strain; assay: Production of D-valine by resolution of N-acetyl-D,L-valine (HPLC); type: biochemical; conditions: 15% aqueous N-acetyl-D,L-valine, enzyme 200 U/mL, 40° C.
Procedure: It was then confirmed that the strains that had been selected by the chromogenic process show rapid reduction of the N-acetyl-D-valine and increase of the D-valine in an amount corresponding to the reduction of the N-acetyl-D-valine.
By using 15% aqueous solution of N-acetyl-D,L-valine as a substrate, D-aminoacylase from Defluvibacter sp. A131-3 strain was added with in an amount of 200 U per 1 ml of the aqueous solution of the substrate, and the reaction was allowed to proceed at 40° C. for 3 days. The rate of D-valine production by resolution from the N-acetyl-D,L-valine was measured by the HPLC method described in Example 1 (2).

[5] = Isoelectric point by two-dimensional electrophoresis for denatured system; type: physicochemical, Defluvibacter sp. A131-3; conditions: calculated from mobility of 2D-protein isoelectric point markers
Procedure: (3) Isoelectric point: Isoelectric point is measured on the basis of two-dimensional electrophoresis process by two-dimensional electrophoresis for denatured system (using IPG tube gel “Daiichi” 4-10 and PAG Large “Daiichi” 2D-10/20 manufactured by Daiichi Pure Chemicals Co., Ltd.). The pI value of 5.3 is calculated from mobility of 2D-protein isoelectric point markers (2D-protein isoelectric point markers “Daiichi” manufactured by Daiichi Pure Chemicals Co., Ltd.).
3. Protein isoelectric point was measured on the bases of two-dimensional electrophoresis process by two-dimensional electrophoresis for denatured system (using IPG tube gel “Daiichi” 4-10 and PAG Large “Daiichi” 2D-10/20 manufactured by Daiichi Pure Chemicals Co., Ltd.). The pI value of the enzyme of the present invention calculated from the mobility of the pI values 5.1, 5.2, 5.3, 5.4, 5.7, 6.0, 6.2, 6.4, 6.5, 6.7, 6.8, 7.0, and 7.1 of the 2D-protein isoelectric point markers (2D-protein isoelectric point markers “Daiichi” manufactured by Daiichi Pure Chemicals Co., Ltd.) was 5.3.

[6] = Optimal temperature of the enzyme; type: biochemical, Defluvibacter sp. A131-3; conditions: pH 8, 30 minutes
[7] = 30° C., 1 day

Molecule | Substrate specificity: whether the enzyme acts on the substrate [2] | Relative activity (% in relation to Met) [2] [%] | Relative activity (% in relation to Val) [2] [%] | other results
[Cl-].[K+] [Potassium chloride, potassium chloride] |  |  |  | Relative activity (%) [1]: 92%
O.O.O.O.O.O.[Cl-].[Cl-].[Co+2] [Cobalt (II) chloride, cobalt (II) chloride hexahydrate] |  |  |  | Effects of metal ions on activity [1]: inhibited; Relative activity (%) [1]: 27%
CC(=O)N[C@H](CC(C)C)C(=O)O [N-Ac-D-Leu, N-acetyl-D-leucine] | to some extent; also recorded: acting on | 555 | 73 | 
CC(=O)N[C@@H](Cc1ccc(O)cc1)C(=O)O [N-Ac-L-Tyr, N-acetyl-L-tyrosine] | does not act on | 0 | 0 | 
O.O.O.O.O.O.[Cl][Ni][Cl] [Nickel chloride, nickel chloride hexahydrate] |  |  |  | Effects of metal ions on activity [1]: inhibited; Relative activity (%) [1]: 20%
O[C@H](CS)[C@H](O)CS (racemic) [Dithiothreitol, dithiothreitol] |  |  |  | Effects of inhibitors on activity [3]: inhibited; Relative activity (%) [3]: 38%
CC(=O)N[C@H](Cc1ccccc1)C(=O)O [N-Ac-D-Phe, N-acetyl-D-phenylalanine] | to some extent; also recorded: acting on | 37 | 4.8 | 
CC(=O)N[C@H](C(=O)O)C(C)C [N-Ac-L-Val, N-acetyl-L-valine] | does not act on | 0 | 0 | Decomposition of the L-form by the enzyme [4]: not decomposed at all
N[C@@H](CS)C(=O)O [L-cysteine] |  |  |  | Effects of inhibitors on activity [3]: inhibited
[Cl-].[Cl-].[Zn+2] [Zinc chloride, zinc chloride] |  |  |  | Effects of metal ions on activity [1]: inhibited; Relative activity (%) [1]: 31%
CC(=O)N[C@H](Cc1c[nH]c2ccccc12)C(=O)O [N-Ac-D-Trp, N-acetyl-D-tryptophan] | to some extent | 1.1 | 0.2 | Substrate specificity: whether the enzyme acts on the substrate ([2]; listed as N-acetyl-D-triptophan): acting on
NC(=O)CI [Iodacetamide, iodacetamide] |  |  |  | Relative activity (%) [3]: 107%
OCCS [2-mercaptoethanol] |  |  |  | Effects of inhibitors on activity [3]: inhibited
O=C(O)CN(CCN(CC(=O)O)CC(=O)O)CC(=O)O [Ethylenediamine tetraacetic acid, ethylenediamine tetraacetic acid] |  |  |  | Relative activity (%) [3]: 112%
CC(=O)N[C@@H](Cc1ccccc1)C(=O)O [N-Ac-L-Phe, N-acetyl-L-phenylalanine] | does not act on | 0 | 0 | 
CCN1C(=O)C=CC1=O [N-ethylmaleimide] |  |  |  | Relative activity (%) [3]: 100%
CSCC[C@H](NC(C)=O)C(=O)O [N-Ac-L-Met, N-acetyl-L-methionine] | does not act on | 0 | 0 | 
CC(=O)N[C@@H](CC(C)C)C(=O)O [N-Ac-L-Leu, N-acetyl-L-leucine] | does not act on | 0 | 0 | 
CSCC[C@@H](NC(C)=O)C(=O)O [N-Ac-D-Met, N-acetyl-D-methionine] | to some extent; also recorded: acting on | 100 | 13 | 
c1cnc2c(c1)ccc1cccnc12 [O-phenanthroline, o-phenanthroline] |  |  |  | Effects of inhibitors on activity [3]: inhibited; Relative activity (%) [3]: 53%; Relative activity (%) ([3]; listed as o-phenanthroline): less than 60%
iron (III) chloride hexahydrate |  |  |  | Relative activity (%) [1]: 88%
[Na+].[Na+].[O]=[Mo](=[O])([O-])[O-] [Sodium molybdate, sodium molybdate] |  |  |  | Relative activity (%) [1]: 105%
O.O.O.O.[Cl][Mn][Cl] [Manganese chloride, manganese (II) chloride tetrahydrate] |  |  |  | Effects of metal ions on activity [1]: inhibited; Relative activity (%) [1]: 48%
CC(=O)N[C@H](Cc1ccc(O)cc1)C(=O)O [N-Ac-D-Tyr, N-acetyl-D-tyrosine] | to some extent; also recorded: acting on | 8.4 | 1.1 | 
CC(=O)N[C@@H](C(=O)O)C(C)C [N-Ac-D-Val, N-acetyl-D-valine] | acted most effectively; also recorded: acting on | 762 | 100 | 
CC(=O)N[C@H](CCC(=O)O)C(=O)O [N-Ac-D-Glu, N-acetyl-D-glutamic acid] |  | 0 | 0 | 
[Cl-].[Na+] [Sodium chloride, sodium chloride] |  |  |  | Relative activity (%) [1]: 99%
CC(=O)N[C@@H](CCC(=O)O)C(=O)O [N-Ac-L-Glu, N-acetyl-L-glutamic acid] |  | 0 | 0 | 
CC(=O)N[C@@H](Cc1c[nH]c2ccccc12)C(=O)O [N-Ac-L-Trp, N-acetyl-L-tryptophan] | does not act on | 0 | 0 | 
B1 |  |  |  | Isoelectric point (pI value) [5]: 5.3; Optimal temperature [6]: 37 °C; Residual activity at pH 6 or pH 11 [7]: not 0%; pH at which the enzyme is most stable [7]: ~9 pH
